# Measurements as given in PMC7846450 (Science (New York, N.Y.), 2020).
# Target: T1, Glk1 (Saccharomyces cerevisiae, UniProt P17709, F3S)
# T1 sequence (P17709 1-500 F3S): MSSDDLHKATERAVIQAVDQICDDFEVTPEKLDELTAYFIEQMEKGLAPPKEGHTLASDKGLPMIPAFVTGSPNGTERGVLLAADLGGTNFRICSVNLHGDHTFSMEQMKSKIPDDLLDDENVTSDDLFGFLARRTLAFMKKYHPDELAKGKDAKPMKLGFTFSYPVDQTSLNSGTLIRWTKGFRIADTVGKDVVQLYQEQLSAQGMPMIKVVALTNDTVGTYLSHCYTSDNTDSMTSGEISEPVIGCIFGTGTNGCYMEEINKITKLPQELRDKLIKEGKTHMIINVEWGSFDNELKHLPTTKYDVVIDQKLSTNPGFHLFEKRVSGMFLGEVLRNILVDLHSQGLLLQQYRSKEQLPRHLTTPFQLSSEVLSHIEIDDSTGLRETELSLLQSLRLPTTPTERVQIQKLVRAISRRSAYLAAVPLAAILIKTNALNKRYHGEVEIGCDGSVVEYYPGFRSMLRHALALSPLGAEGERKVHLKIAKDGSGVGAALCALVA
# Experiment: enzyme activity versus Glk1 concentration
# Type: biochemical
# Details: non-polymerizing mutant
smiles,measurement,value
OC[C@H]1OC(O)[C@H](O)[C@@H](O)[C@@H]1O (stereo partly shown) [glucose],enzyme activity versus Glk1 concentration,NonPol-Glk1 was enzymatically active but lacked the concentration-dependent inhibition of wild-type Glk1
